Data published in ChEMBL document CHEMBL1158196, “Isolation and synthesis of novel farnesyl protein transferase inhibitors, valinoctins A and B, from Streptomyces strain MJ858-NF3” (J Nat Prod, 1996).
Converted amounts (≈) assume the structure as drawn.

Assay: Inhibition of bovine brain FPTase after 20 mins
Set-up: species or system Bos taurus

Compound	IC50
CCCCC[C@@H](N)[C@H](O)C(=O)N[C@H](C(=O)O)C(C)C [VALINOCTIN A]	0.9 µg/mL (≈ 3.28 µM)
CCC(C)CC[C@@H](N)[C@H](O)C(=O)N[C@H](C(=O)O)C(C)C (some centres not stated) [VALINOCTIN B]	1 µg/mL (≈ 3.47 µM)
